In PubChem BioAssay (NCI) one finds GI50 and TGI data, which are given here for ten compounds.

Each structure is given as a SMILES string.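 Briefly, cells in 96-well plates were exposed to five compound concentrations for 48 h, and endpoints were estimated by linear interpolation. GI50 = concentration required for 50% inhibition of growth. TGI is the concentration that stops growth completely.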 Some results are limits rather than exact numbers.

Among the test systems are A498 renal; MDA-MB-231 breast; K-562 leukemia; SK-MEL-2 melanoma; UO-31 renal; RPMI-8226 leukemia; ACHN renal; HCC-2998 colon; HCT-116 colon; M14 melanoma.
Holding throughout (assay): growth of human tumour cells (NCI), 48 h

Take `Cc1ccc(C(=O)N(CCCN)C(c2oc3cc(Cl)ccc3c(=O)c2Cc2ccccc2)C(C)C)cc1` (stereo not given): the GI50 is below 0.01 µM in the assay with A498 renal; below 0.01 µM in the assay with MDA-MB-231 breast; below 0.01 µM in the assay with K-562 leukemia; below 0.01 µM in the assay on SK-MEL-2 melanoma; 0.67 µM in the assay with UO-31 renal; below 0.01 µM in the assay with RPMI-8226 leukemia. In addition, the GI50 in the assay on ACHN renal was 1.07 µM; in the assay with HCC-2998 colon it was below 0.01 µM. In addition, the TGI with K-562 leukemia amounted to 1.41 µM; in the assay on UO-31 renal, 2.46 µM; in the assay with RPMI-8226 leukemia, 1.46 µM; in the assay with ACHN renal it was 2.39 µM; in the assay on HCC-2998 colon it was 1.58 µM.
As to `CCOC(=S)SSSC(=S)OCC`, the TGI was above 100 µM in the assay on A498 renal; 53.7 µM with HCT-116 colon; above 100 µM with MDA-MB-231 breast; above 100 µM in the assay with K-562 leukemia; 61.1 µM in the assay on RPMI-8226 leukemia; 41.9 µM with ACHN renal. The TGI in the assay on M14 melanoma and with HCC-2998 colon was above 100 µM in each case.
On to `CCCC(=O)OCC1OC(n2cnc3c(=S)nc[nH]c32)C(OC(=O)CCC)C1OC(=O)CCC` (stereo not given), for which the GI50 was 33.2 µM with A498 renal; 4 µM in the assay on HCT-116 colon; 5.71 µM in the assay with MDA-MB-231 breast; 1.7 µM in the assay with K-562 leukemia; 28.1 µM in the assay on SK-MEL-2 melanoma; 7.53 µM in the assay with UO-31 renal. For the same compound, the GI50 in the assay with ACHN renal was 6.15 µM; in the assay with M14 melanoma, 2.23 µM; in the assay on HCC-2998 colon, 2.92 µM. Also, the TGI with A498 renal, with HCT-116 colon, in the assay on MDA-MB-231 breast, in the assay with K-562 leukemia, with SK-MEL-2 melanoma and with UO-31 renal was above 100 µM each time. Further, the TGI with ACHN renal, with M14 melanoma and with HCC-2998 colon was above 100 µM throughout.
On to `O=C(Nc1ccncc1)C(=O)c1cn(S(=O)(=O)c2cccc(F)c2)c2ccccc12`, for which the GI50 in the assay on A498 renal is 13.4 µM; in the assay on HCT-116 colon, 1.38 µM; with MDA-MB-231 breast it was 10.8 µM; with K-562 leukemia, 1.65 µM; in the assay on SK-MEL-2 melanoma, 10.3 µM; in the assay on UO-31 renal, 6.15 µM. Also, the GI50 is 1.58 µM with RPMI-8226 leukemia, 9.5 µM in the assay on ACHN renal and 2.2 µM with HCC-2998 colon. Further, the TGI in the assay on A498 renal was 97 µM; in the assay on HCT-116 colon, above 100 µM; in the assay on MDA-MB-231 breast it was above 100 µM; in the assay with K-562 leukemia, above 100 µM; with SK-MEL-2 melanoma it was above 100 µM; in the assay on UO-31 renal, above 100 µM. The TGI was above 100 µM with RPMI-8226 leukemia, above 100 µM in the assay on ACHN renal and 89.3 µM with HCC-2998 colon.
With `O=C1c2cccc([N+](=O)[O-])c2C(=O)N1c1ncn[nH]1`, the TGI in the assay on A498 renal, in the assay on HCT-116 colon, with MDA-MB-231 breast, with K-562 leukemia, in the assay on SK-MEL-2 melanoma and in the assay on UO-31 renal was above 100 µM in each case. Besides, the TGI with RPMI-8226 leukemia, in the assay with ACHN renal and in the assay on M14 melanoma was above 100 µM each time.
`N#CC(C#N)=C1Nc2ccccc2S1`: the GI50 in the assay on A498 renal was 26.6 µM; with HCT-116 colon, 37.7 µM; in the assay on MDA-MB-231 breast it was 43.4 µM; in the assay with K-562 leukemia it was 38.3 µM; in the assay on SK-MEL-2 melanoma, 28.5 µM; with UO-31 renal, 39.1 µM. Besides, the GI50 in the assay with RPMI-8226 leukemia is 33.6 µM; in the assay on M14 melanoma, 22.6 µM. Also, the TGI is 55.5 µM in the assay on A498 renal; above 100 µM in the assay with HCT-116 colon; above 100 µM in the assay on MDA-MB-231 breast; above 100 µM in the assay with K-562 leukemia; 56.2 µM with SK-MEL-2 melanoma; above 100 µM in the assay on UO-31 renal. In addition, the TGI in the assay on RPMI-8226 leukemia is 79.7 µM; with M14 melanoma it was above 100 µM.
Consider `Cc1ccc(-c2nc3nc(-c4ccccc4)nc(N4CCCNCC4)c3o2)cc1`, for which the GI50 in the assay with A498 renal was 1.53 µM; in the assay with HCT-116 colon, 1.31 µM; in the assay on MDA-MB-231 breast, 1.81 µM; in the assay with K-562 leukemia it was 0.442 µM; with SK-MEL-2 melanoma, 2.11 µM; in the assay on UO-31 renal, 1.55 µM. Further, the GI50 with ACHN renal was 1.73 µM; in the assay on M14 melanoma, 1.96 µM; in the assay with HCC-2998 colon, 2.04 µM. For the same compound, the TGI with A498 renal came to 3.13 µM; in the assay with HCT-116 colon, 2.65 µM; in the assay on MDA-MB-231 breast it was 3.32 µM; with K-562 leukemia it was 1.86 µM; in the assay on SK-MEL-2 melanoma it was 3.84 µM; in the assay on UO-31 renal, 2.96 µM. Besides, the TGI in the assay on ACHN renal worked out at 3.12 µM; in the assay on M14 melanoma it was 3.69 µM; in the assay with HCC-2998 colon, 4.17 µM.
`Cc1cc(-c2cnn3c(NCC4CC(C)(O)C4)cc(Oc4cccnc4)nc23)ccc1C(=O)NC1CC1` (stereo not given): the GI50 was 0.435 µM in the assay with A498 renal; 0.0858 µM in the assay with HCT-116 colon; 3.39 µM in the assay with MDA-MB-231 breast; above 100 µM in the assay on K-562 leukemia; 1.95 µM in the assay on SK-MEL-2 melanoma; 2.02 µM in the assay on UO-31 renal. In addition, the values for the GI50 in the assay on ACHN renal and in the assay with M14 melanoma were 1.29 µM and 1.44 µM, respectively. Further, the TGI in the assay on A498 renal, in the assay on HCT-116 colon, in the assay on MDA-MB-231 breast, in the assay with K-562 leukemia, with SK-MEL-2 melanoma and with UO-31 renal was above 100 µM in each case. Moreover, the TGI in the assay with ACHN renal and with M14 melanoma was above 100 µM each time.
For the compound `COc1cc(C(=O)CBr)c(OC)cc1C`, the TGI in the assay with A498 renal, in the assay on HCT-116 colon, with MDA-MB-231 breast, with K-562 leukemia, in the assay on SK-MEL-2 melanoma and in the assay on UO-31 renal was above 100 µM each time. In addition, the TGI in the assay with RPMI-8226 leukemia, with ACHN renal and with M14 melanoma was above 100 µM throughout.
With `COc1ccc2c(c1)C(=O)c1c-2n(CCCn2ccnc2)c(=O)c2cc([N+](=O)[O-])ccc12`, the GI50 in the assay on A498 renal is below 0.01 µM; in the assay with MDA-MB-231 breast, 2.59 µM; in the assay on K-562 leukemia it was below 0.01 µM; in the assay on SK-MEL-2 melanoma, 0.245 µM; with UO-31 renal, below 0.01 µM; in the assay on RPMI-8226 leukemia it was 0.0653 µM. Besides, the GI50 is below 0.01 µM with M14 melanoma and below 0.0194 µM in the assay on HCC-2998 colon. For the same compound, the TGI is 0.184 µM in the assay on A498 renal; above 100 µM with MDA-MB-231 breast; above 100 µM in the assay with K-562 leukemia; 0.38 µM with UO-31 renal; 0.515 µM in the assay with RPMI-8226 leukemia; below 0.01 µM in the assay with M14 melanoma. In addition, in the assay on HCC-2998 colon, the TGI was 0.267 µM.
